Data published in ChEMBL document CHEMBL1156829 (Proc Natl Acad Sci U S A, 2008).

Columns and labels:
Plasmodium falciparum [1] = experiment: NOVARTIS: Inhibition of Plasmodium falciparum 3D7 (drug-susceptible) proliferation in erythrocyte-based infection assay; type: functional, organism-based; conditions: Plasmodium falciparum, 3D7
Plasmodium falciparum [2] = experiment: NOVARTIS: Inhibition of Plasmodium falciparum W2 (drug-resistant) proliferation in erythrocyte-based infection assay; type: functional, organism-based; conditions: Plasmodium falciparum, W2; read-out: EC50
[3] = NOVARTIS: Cytotoxicity against human hepatocellular carcinoma cell line (Huh7); type: toxicity, cell-based, Huh-7; conditions: Huh7 cells (hepatocellular carcinoma cell line)

COc1ccccc1CNc1ncc(C(=O)NCCCN2CCCC2=O)c(NCCc2ccccc2)n1
EC50 (Plasmodium falciparum [1]): 214 nM | EC50 (Plasmodium falciparum [2]): 1190 nM | CC50 [3]: > 10000 nM

COc1ccc(CN2CCc3nnc(CCc4ccccc4)n3CC2)c(F)c1
EC50 (Plasmodium falciparum [1]): > 1060 nM | EC50 (Plasmodium falciparum [2]): > 1250 nM | CC50 [3]: > 10000 nM

COc1cc(/C=C2\CC/C(=C\c3cc(OC)c(OC)c(OC)c3)C2=O)cc(OC)c1OC
EC50 (Plasmodium falciparum [1]): 458 nM | EC50 (Plasmodium falciparum [2]): 457 nM | CC50 [3]: 873 nM

O=C(O)CSc1ccc(C(=O)NC2CCCCNC2=O)cn1 (centres undefined)
EC50 (Plasmodium falciparum [1]): > 1490 nM | EC50 (Plasmodium falciparum [2]): 263 nM | CC50 [3]: > 10000 nM

CC(CNC(=O)c1cn(C2CCCCC2)cc(C(=O)NC(C)(C)C)c1=O)c1ccccc1 (centres undefined)
EC50 (Plasmodium falciparum [1]): 174 nM | EC50 (Plasmodium falciparum [2]): < 15 nM | CC50 [3]: > 10000 nM

CCCN(CCC)S(=O)(=O)c1ccc(C(=O)Nc2ccccc2C(=O)Oc2ccc3c(c2)c(C(=O)OCC)c(C)n3-c2ccccc2)cc1
EC50 (Plasmodium falciparum [1]): 726 nM | EC50 (Plasmodium falciparum [2]): 744 nM | CC50 [3]: > 100000 nM

CC(C)(C)C1=NN(CC(=O)NCCc2c[nH]cn2)C(=O)c2cc3ccccc3n2C1
EC50 (Plasmodium falciparum [1]): > 1250 nM | EC50 (Plasmodium falciparum [2]): > 614 nM | CC50 [3]: > 13200 nM

Cc1ccc(S(=O)(=O)N(C)CCCNc2ccnc3cc(Cl)ccc23)cc1
EC50 (Plasmodium falciparum [1]): 380 nM | EC50 (Plasmodium falciparum [2]): 314 nM | CC50 [3]: 4010 nM

CCCCOc1nc(-c2ccc(OC)cc2)n(C(=O)c2ccccc2OC)n1
EC50 (Plasmodium falciparum [1]): 8970 nM | EC50 (Plasmodium falciparum [2]): 717 nM | CC50 [3]: > 100000 nM

COc1ccc(C(=O)C[n+]2cc(-c3ccc(OC)cc3)n3c2CCC3)cc1
EC50 (Plasmodium falciparum [1]): 892 nM | EC50 (Plasmodium falciparum [2]): 822 nM | CC50 [3]: > 100000 nM

COc1cccc(CNC(=O)C2CNCC2c2ccc(C(F)(F)F)cc2)c1 (centres undefined)
EC50 (Plasmodium falciparum [1]): 395 nM | EC50 (Plasmodium falciparum [2]): 111 nM | CC50 [3]: > 7220 nM

CCOc1ccc(Nc2nc(N3CCCCC3)nc(N3CCCCC3)n2)cc1
EC50 (Plasmodium falciparum [1]): 1190 nM | EC50 (Plasmodium falciparum [2]): > 1250 nM | CC50 [3]: > 10000 nM

CCN1CCN(c2cc(C)c3cc(NC(=O)c4cncc(Br)c4)ccc3n2)CC1
EC50 (Plasmodium falciparum [1]): 265 nM | EC50 (Plasmodium falciparum [2]): 411 nM | CC50 [3]: 19400 nM

CCOC(=O)CCCSc1nc(-c2cccs2)cc(C(F)(F)F)c1C#N
EC50 (Plasmodium falciparum [1]): 352 nM | EC50 (Plasmodium falciparum [2]): 198 nM | CC50 [3]: > 10000 nM

CC(=O)Nc1nc(C)c(-c2csc(Nc3ccc(Cl)cc3)n2)s1
EC50 (Plasmodium falciparum [1]): 140 nM | EC50 (Plasmodium falciparum [2]): 97.8 nM | CC50 [3]: 34400 nM

OCCNc1nc(Nc2ccc(Br)cc2)nc2ccccc12
EC50 (Plasmodium falciparum [1]): 490 nM | EC50 (Plasmodium falciparum [2]): 566 nM | CC50 [3]: 12000 nM

Cc1ccc(-n2c(SCc3cccc(C)c3)nnc2C(Cc2ccccc2)NC(=O)NC(C)(C)C)cc1 (centres undefined)
EC50 (Plasmodium falciparum [1]): 735 nM | EC50 (Plasmodium falciparum [2]): 1010 nM | CC50 [3]: > 10000 nM

COc1cccc2c(C)cc(NCc3ccccc3Cl)nc12
EC50 (Plasmodium falciparum [1]): > 1250 nM | EC50 (Plasmodium falciparum [2]): > 985 nM | CC50 [3]: > 10000 nM

CCC(=O)N1CCc2cc(S(=O)(=O)N3CCN(c4cccc(C(F)(F)F)c4)CC3)ccc21
EC50 (Plasmodium falciparum [1]): 574 nM | EC50 (Plasmodium falciparum [2]): 398 nM | CC50 [3]: > 10000 nM

Cc1ccc(Cn2c(SCc3ccc(C(=O)NCCc4ccccc4)cc3)nc3ccncc32)cc1
EC50 (Plasmodium falciparum [1]): 700 nM | EC50 (Plasmodium falciparum [2]): 174 nM | CC50 [3]: > 100000 nM

CC(=O)c1c(C)oc2ccc(NS(=O)(=O)c3cccc(C(=O)O)c3)cc12
EC50 (Plasmodium falciparum [1]): > 1250 nM | EC50 (Plasmodium falciparum [2]): > 515 nM | CC50 [3]: > 10000 nM

N=C(NN=Cc1ccc([N+](=O)[O-])cc1)NN=Cc1ccc([N+](=O)[O-])cc1
EC50 (Plasmodium falciparum [1]): 280 nM | EC50 (Plasmodium falciparum [2]): 271 nM | CC50 [3]: > 100000 nM

CC(C)CN(CC(=O)N1CCC(Nc2nsc3ccccc23)C1)S(C)(=O)=O (centres undefined)
EC50 (Plasmodium falciparum [1]): 1980 nM | EC50 (Plasmodium falciparum [2]): 3940 nM | CC50 [3]: 15700 nM

COc1cccc(CN2CCN(C(=O)c3c(C)noc3C)[C@@H](C)C2)c1
EC50 (Plasmodium falciparum [1]): > 936 nM | EC50 (Plasmodium falciparum [2]): > 1250 nM | CC50 [3]: > 10000 nM

Oc1nnc(SCc2nc3ccccc3s2)n1Cc1ccco1
EC50 (Plasmodium falciparum [1]): > 1460 nM | EC50 (Plasmodium falciparum [2]): 268 nM | CC50 [3]: > 10000 nM

CC(=NNC(=S)N(C)C)c1ccccn1
EC50 (Plasmodium falciparum [1]): 311 nM | EC50 (Plasmodium falciparum [2]): 338 nM | CC50 [3]: > 10000 nM

O=C(NCc1ccco1)C1CCN(S(=O)(=O)c2ccc(Br)cc2)CC1
EC50 (Plasmodium falciparum [1]): 362 nM | EC50 (Plasmodium falciparum [2]): 629 nM | CC50 [3]: > 100000 nM

O=C1c2ccccc2C2=Nc3ccccc3SC(c3cccc(F)c3)C12 (centres undefined)
EC50 (Plasmodium falciparum [1]): 86.7 nM | EC50 (Plasmodium falciparum [2]): 135 nM | CC50 [3]: 30300 nM
